According to ChEMBL document CHEMBL5260850, “The exploration of aza-quinolines as hematopoietic prostaglandin D synthase (H-PGDS) inhibitors with low brain exposure” (Bioorg Med Chem, 2020):
The source made the active and inactive calls. The calls are words filed in the database; no cut-off is given here.

Columns and labels:
[1] = target: T1, Hematopoietic prostaglandin D synthase (Rattus norvegicus, UniProt O35543); assay: Inhibition of H-PGDS in rat RBL cells assessed as reduction in A23187-induced PGD2 production pretreated for 30 mins followed by A23187 addition for 30 mins by RapidFire Mass spectrometry; type: cell-based
T1 sequence (O35543 whole entry): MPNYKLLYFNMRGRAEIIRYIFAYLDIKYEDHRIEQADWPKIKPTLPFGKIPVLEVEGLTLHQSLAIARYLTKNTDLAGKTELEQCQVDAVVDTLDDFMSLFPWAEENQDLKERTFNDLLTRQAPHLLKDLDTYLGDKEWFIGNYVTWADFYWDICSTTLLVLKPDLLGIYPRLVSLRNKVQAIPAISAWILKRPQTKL

[2] = Dose normalized AUC in mouse at 3 mg/kg, po; type: ADME, organism-based; set-up: unit not given here; details: in vivo
[3] = Apparent permeability, Papp of the compound at pH 7.4 incubated for 3 hrs by AMP based liquid chromatography; type: ADME; details: not told
[4] = Terminal half life in mouse at 1 mg/kg, iv; type: ADME, organism-based; details: in vivo, read-out: beta t1/2 (converted)
[5] = Terminal half life in rat at 0.4 mg/kg, iv; type: ADME, organism-based; details: in vivo, read-out: beta t1/2 (converted)
[6] = Terminal half life in dog at 0.5 mg/kg, iv; type: ADME, organism-based, Canis lupus familiaris; details: in vivo, read-out: beta t1/2 (converted)
[7] = Oral bioavailability in dog at 1 mg/kg; type: ADME, organism-based, Canis lupus familiaris; details: in vivo
[8] = target: Aryl hydrocarbon receptor (Homo sapiens, UniProt P35869); assay: Inhibition of AhR (unknown origin) upto 10000 nM; details: 10 µM
Chain of Aryl hydrocarbon receptor (P35869 whole entry): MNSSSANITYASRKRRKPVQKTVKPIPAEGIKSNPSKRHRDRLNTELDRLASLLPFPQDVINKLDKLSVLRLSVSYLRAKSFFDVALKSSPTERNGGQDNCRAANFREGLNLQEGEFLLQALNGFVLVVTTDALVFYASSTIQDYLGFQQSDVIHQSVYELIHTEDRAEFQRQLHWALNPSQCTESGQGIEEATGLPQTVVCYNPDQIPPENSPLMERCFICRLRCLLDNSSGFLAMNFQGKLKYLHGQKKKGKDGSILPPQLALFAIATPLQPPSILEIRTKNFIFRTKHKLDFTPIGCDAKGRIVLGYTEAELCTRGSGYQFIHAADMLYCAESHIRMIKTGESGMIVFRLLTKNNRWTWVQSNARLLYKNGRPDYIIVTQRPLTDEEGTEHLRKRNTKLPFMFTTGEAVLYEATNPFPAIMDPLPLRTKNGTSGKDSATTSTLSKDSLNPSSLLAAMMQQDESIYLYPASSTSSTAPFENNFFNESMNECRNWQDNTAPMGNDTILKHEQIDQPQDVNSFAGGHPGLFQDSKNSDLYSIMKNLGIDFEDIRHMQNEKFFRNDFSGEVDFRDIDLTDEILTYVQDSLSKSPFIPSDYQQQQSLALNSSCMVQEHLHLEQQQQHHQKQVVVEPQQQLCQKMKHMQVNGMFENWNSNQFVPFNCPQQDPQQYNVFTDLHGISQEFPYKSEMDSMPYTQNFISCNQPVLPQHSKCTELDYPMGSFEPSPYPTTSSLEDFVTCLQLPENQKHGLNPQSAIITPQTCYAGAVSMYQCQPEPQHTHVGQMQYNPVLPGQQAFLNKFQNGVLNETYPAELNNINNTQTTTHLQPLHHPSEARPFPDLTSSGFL

[9] = target: Nuclear receptor subfamily 1 group I member 2 (Homo sapiens, UniProt O75469); assay: Inhibition of PXR (unknown origin) upto 10000 nM; details: 10 µM
Chain of Nuclear receptor subfamily 1 group I member 2 (O75469 whole entry): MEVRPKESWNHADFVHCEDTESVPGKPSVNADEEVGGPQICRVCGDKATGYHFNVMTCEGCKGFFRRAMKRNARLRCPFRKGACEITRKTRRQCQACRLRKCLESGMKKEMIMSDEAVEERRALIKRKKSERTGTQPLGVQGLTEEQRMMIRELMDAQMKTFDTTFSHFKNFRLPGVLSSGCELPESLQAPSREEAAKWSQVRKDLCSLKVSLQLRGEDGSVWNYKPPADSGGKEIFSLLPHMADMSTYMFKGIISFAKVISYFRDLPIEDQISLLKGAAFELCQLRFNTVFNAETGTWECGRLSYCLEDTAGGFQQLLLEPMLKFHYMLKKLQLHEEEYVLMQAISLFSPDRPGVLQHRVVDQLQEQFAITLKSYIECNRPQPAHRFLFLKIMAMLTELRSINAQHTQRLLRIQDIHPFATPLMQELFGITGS

[10] = target: Solute carrier organic anion transporter family member 1B1 (Homo sapiens, UniProt Q9Y6L6); assay: Inhibition of OATP1B1 (unknown origin) upto 10000 nM; details: 10 µM
Chain of Solute carrier organic anion transporter family member 1B1 (Q9Y6L6 whole entry): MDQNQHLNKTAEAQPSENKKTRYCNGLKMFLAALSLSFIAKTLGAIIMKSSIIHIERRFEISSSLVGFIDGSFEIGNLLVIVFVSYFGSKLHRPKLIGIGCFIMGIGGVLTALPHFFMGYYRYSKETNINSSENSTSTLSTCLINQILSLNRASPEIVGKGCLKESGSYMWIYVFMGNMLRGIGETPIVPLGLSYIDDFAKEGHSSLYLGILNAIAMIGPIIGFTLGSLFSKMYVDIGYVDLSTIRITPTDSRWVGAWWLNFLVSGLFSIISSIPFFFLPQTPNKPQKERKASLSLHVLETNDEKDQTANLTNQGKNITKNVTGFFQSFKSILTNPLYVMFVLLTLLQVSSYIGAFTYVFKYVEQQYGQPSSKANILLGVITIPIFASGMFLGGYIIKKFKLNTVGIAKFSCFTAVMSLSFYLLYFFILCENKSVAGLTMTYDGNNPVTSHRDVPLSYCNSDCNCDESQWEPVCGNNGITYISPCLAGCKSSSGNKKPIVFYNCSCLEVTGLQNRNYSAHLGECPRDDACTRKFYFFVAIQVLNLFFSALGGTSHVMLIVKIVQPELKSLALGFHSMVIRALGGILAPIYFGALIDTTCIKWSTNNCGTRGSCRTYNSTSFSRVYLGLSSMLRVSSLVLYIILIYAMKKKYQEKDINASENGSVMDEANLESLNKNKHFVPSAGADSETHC

Mus musculus [11] = assay: Anti-inflammatory activity against C57BL6/N mouse assessed as reduction in LPS-induced PGD2 level in skeletal muscle administered orally with compound and 1 hr later treated with LPS and measured after 30 mins by LC-MS/MS analysis; type: functional; details: route po, time 1.5 hrs
[12] = Free AUC (0 to last) in eccentric contraction-induced muscle injury C57BL/6N mouse model administered orally for 10 mins prior to unilateral eccentric contraction and QD for 16 days thereafter; type: ADME; details: in vivo, po, 384 h, time 16 day
[13] = AUC (0 to last) in mdx mouse administered orally 10 mins prior to unilateral eccentric contraction and QD for 43 days thereafter; type: ADME; set-up: time 43 day, route po; details: in vivo, po
[14] = Cmax in mdx mouse administered orally 10 mins prior to unilateral eccentric contraction and QD for 43 days thereafter; type: ADME; set-up: time 43 day, route po; details: in vivo, po
[15] = Toxicity in compound 48/80-treated C57BL/6J mouse assessed as seizures administered orally with compound and 1 hr later treated with compound 48/80 for 7 mins; details: in vivo, po, 1.117 h, time 67 min
[16] = Toxicity in LPS-treated C57BL6/N mouse assessed as seizures administered orally with compound and 1 hr later treated with LPS and measured after 30 mins; details: in vivo, po, 1.5 h
[17] = Toxicity in C57BL/6N mouse assessed as seizures administered orally for 10 mins prior to unilateral eccentric contraction and QD for 16 days thereafter; details: in vivo, po, 384 h, time 16 day
[18] = Ratio of drug level in muscle to plasma in C57BL/6N mouse administered orally for 10 mins prior to unilateral eccentric contraction and QD for 16 days thereafter; type: toxicity, cell-free, Muscle tissue/plasma; details: route po, time 16 day
[19] = Ratio of drug level in muscle to plasma in C57BL/6N mouse administered orally for 10 mins prior to unilateral eccentric contraction and QD for 43 days thereafter; type: toxicity, cell-free, Muscle tissue/plasma; details: route po, time 43 day
[20] = Genotoxicity in Salmonella typhimurium in presence of metabolic activation by Ames test; type: toxicity; details: salmonella enterica subsp. enterica serovar typhimurium
[21] = Toxicity in rat assessed as tolerance at 300 mg/kg, po administered as single dose; type: organism-based; details: in vivo
[22] = Toxicity in Wistar Han rat assessed as morphological changes in heart at 30 mg/kg/day, po administered QD for 7 days by microscopic analysis; type: organism-based; details: in vivo, 168 h, time 7 day
[23] = Toxicity in Wistar Han rat assessed as necrosis and inflammatory cell infiltrates in heart at 100 mg/kg/day, po administered QD for 7 days by microscopic analysis; type: organism-based; details: in vivo, 168 h, time 7 day
[24] = Toxicity in Wistar Han rat assessed as seizure-like activity at 10 to 100 mg/kg/day, po QD for 7 days; type: organism-based; details: in vivo, 168 h, dose 10-100 mg/kg/day, time 7 day
[25] = Toxicity in dog assessed as organ morphological changes upto 30 mg/kg/day, po QD for 4 days by microscopic analysis; type: organism-based, Canis lupus familiaris; details: in vivo, 96 h, time 4 day
[26] = Toxicity in dog assessed as discoloration in small intestine and oesophagus at 75 mg/kg/day, po QD for 4 days by macroscopic analysis; type: organism-based, Canis lupus familiaris; details: in vivo, 96 h, time 4 day
[27] = Toxicity in dog assessed as diffuse degenration/regeneration and multifocal erosion/ulcreation in small intestine and oesophagus at 75 mg/kg/day, po QD for 4 days by microscopic analysis; type: organism-based, Canis lupus familiaris; details: in vivo, 96 h, time 4 day
[28] = Toxicity in dog assessed as clinical pathological changes by measuring increase in red cell mass at 75 mg/kg/day, po QD for 4 days; type: organism-based, Canis lupus familiaris; details: in vivo, 96 h, time 4 day
[29] = AUC in dog at 10 mg/kg/day, po QD for 4 days; type: ADME, organism-based, Canis lupus familiaris; set-up: dose 10 mg/kg/day, time 4 day, route po; details: in vivo
[30] = AUC in dog at 75 mg/kg/day, po QD for 4 days; type: ADME, organism-based, Canis lupus familiaris; set-up: time 4 day, dose 75 mg/kg/day, route po; details: in vivo
[31] = Cmax in dog at 75 mg/kg/day, po QD for 4 days; type: ADME, organism-based, Canis lupus familiaris; set-up: dose 75 mg/kg/day, time 4 day, route po; details: in vivo
Mus musculus [32] = assay: Anti-inflammatory activity against C57BL6/N mouse assessed as EC50 required for reduction in LPS-induced PGD2 level in plasma administered orally with compound and 1 hr later treated with LPS and measured after 30 mins by LC-MS/MS analysis; type: functional, organism-based; details: C57BL/6N
Mus musculus [33] = assay: Anti-inflammatory activity against C57BL6/N mouse assessed as EC50 required for reduction in LPS-induced PGD2 level in skeletal muscle administered orally with compound and 1 hr later treated with LPS and measured after 30 mins by LC-MS/MS analysis; type: functional, organism-based, C57BL/6N
[34] = target: Alpha-1B adrenergic receptor (Homo sapiens) (UniProt P35368); details: dose <= 10000.0 nM
Chain of Alpha-1B adrenergic receptor (Homo sapiens) (P35368 whole entry): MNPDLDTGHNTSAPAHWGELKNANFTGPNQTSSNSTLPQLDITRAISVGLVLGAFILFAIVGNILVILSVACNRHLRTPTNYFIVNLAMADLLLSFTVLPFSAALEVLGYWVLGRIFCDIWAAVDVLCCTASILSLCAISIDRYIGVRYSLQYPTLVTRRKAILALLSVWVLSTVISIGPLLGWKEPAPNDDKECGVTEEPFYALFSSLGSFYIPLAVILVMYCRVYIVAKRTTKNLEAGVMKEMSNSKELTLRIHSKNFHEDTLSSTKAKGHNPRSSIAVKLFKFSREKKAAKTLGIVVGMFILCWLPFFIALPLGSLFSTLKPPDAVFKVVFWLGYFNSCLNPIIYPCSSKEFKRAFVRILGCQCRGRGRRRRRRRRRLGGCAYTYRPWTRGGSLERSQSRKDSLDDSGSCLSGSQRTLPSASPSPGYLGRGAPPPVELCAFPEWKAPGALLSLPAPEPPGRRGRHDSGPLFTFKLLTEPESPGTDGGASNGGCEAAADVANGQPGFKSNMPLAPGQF
Description: Inhibition of alpha1B adrenergic receptor (unknown origin) upto 10000 nM

[35] = target: Beta-2 adrenergic receptor (Homo sapiens) (UniProt P07550); details: dose <= 10000.0 nM
Chain of Beta-2 adrenergic receptor (Homo sapiens) (P07550 whole entry, looked up): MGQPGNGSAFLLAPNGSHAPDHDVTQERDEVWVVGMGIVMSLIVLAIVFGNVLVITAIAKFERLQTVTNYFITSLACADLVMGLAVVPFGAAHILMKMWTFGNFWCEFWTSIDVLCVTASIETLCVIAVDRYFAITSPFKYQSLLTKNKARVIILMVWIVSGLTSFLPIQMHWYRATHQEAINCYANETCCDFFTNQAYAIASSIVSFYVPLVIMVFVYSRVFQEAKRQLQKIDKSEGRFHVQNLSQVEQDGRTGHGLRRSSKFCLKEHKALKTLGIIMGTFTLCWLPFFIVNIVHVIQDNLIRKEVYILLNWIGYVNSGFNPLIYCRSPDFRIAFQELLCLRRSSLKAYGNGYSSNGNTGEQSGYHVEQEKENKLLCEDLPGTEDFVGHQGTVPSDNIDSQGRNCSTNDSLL
Description: Inhibition of beta2 adrenergic receptor (unknown origin) upto 10000 nM

[36] = target: Mu-type opioid receptor (Homo sapiens) (UniProt P35372); details: dose <= 10000.0 nM
Chain of Mu-type opioid receptor (Homo sapiens) (P35372 whole entry): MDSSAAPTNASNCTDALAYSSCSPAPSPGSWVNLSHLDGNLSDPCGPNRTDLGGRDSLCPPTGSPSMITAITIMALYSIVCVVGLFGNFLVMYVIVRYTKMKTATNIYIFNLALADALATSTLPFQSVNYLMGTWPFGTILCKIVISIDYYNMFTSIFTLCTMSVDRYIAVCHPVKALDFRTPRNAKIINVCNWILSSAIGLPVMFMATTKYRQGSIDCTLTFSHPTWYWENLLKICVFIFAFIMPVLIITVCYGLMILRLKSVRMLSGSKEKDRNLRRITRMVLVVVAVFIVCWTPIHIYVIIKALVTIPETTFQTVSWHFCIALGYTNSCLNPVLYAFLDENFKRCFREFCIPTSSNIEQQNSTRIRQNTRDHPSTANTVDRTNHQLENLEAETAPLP
Description: Inhibition of mu opioid receptor (unknown origin) upto 10000 nM

[37] = target: Adenosine receptor A2a (Homo sapiens) (UniProt P29274); details: dose <= 10000.0 nM
Chain of Adenosine receptor A2a (Homo sapiens) (P29274 whole entry): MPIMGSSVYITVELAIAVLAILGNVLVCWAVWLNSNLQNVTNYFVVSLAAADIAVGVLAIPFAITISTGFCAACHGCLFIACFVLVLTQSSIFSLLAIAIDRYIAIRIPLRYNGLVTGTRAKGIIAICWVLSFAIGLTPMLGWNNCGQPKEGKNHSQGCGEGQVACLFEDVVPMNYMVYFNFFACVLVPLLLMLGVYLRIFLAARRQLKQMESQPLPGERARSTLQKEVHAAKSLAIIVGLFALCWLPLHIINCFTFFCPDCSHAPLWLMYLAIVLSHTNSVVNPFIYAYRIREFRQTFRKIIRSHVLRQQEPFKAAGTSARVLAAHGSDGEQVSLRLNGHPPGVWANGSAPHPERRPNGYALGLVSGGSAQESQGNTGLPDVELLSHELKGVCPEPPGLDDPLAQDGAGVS
Description: Inhibition of adenosine A2A receptor (unknown origin) upto 10000 nM

[38] = target: Mas-related G-protein coupled receptor member X2 (Homo sapiens) (UniProt Q96LB1); details: dose <= 10000.0 nM
Chain of Mas-related G-protein coupled receptor member X2 (Homo sapiens) (Q96LB1 whole entry): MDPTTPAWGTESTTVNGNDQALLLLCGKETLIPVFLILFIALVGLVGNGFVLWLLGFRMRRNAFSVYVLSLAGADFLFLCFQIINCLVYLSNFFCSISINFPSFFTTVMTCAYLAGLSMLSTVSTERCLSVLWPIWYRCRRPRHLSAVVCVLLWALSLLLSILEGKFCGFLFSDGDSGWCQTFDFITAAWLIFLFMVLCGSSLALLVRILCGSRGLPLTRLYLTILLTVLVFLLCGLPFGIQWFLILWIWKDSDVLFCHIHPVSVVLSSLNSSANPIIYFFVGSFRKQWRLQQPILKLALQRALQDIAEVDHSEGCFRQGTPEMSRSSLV
Description: Inhibition of MRGPRX2 receptor (unknown origin) upto 10000 nM

[39] = target: 3',5'-cyclic-AMP phosphodiesterase 4B (Homo sapiens) (UniProt Q07343); details: dose <= 10000.0 nM
Description: Inhibition of PDE4B (unknown origin) upto 10000 nM

[40] = target: Sodium-dependent noradrenaline transporter (Homo sapiens) (UniProt P23975); details: dose <= 10000.0 nM
Chain of Sodium-dependent noradrenaline transporter (Homo sapiens) (P23975 whole entry): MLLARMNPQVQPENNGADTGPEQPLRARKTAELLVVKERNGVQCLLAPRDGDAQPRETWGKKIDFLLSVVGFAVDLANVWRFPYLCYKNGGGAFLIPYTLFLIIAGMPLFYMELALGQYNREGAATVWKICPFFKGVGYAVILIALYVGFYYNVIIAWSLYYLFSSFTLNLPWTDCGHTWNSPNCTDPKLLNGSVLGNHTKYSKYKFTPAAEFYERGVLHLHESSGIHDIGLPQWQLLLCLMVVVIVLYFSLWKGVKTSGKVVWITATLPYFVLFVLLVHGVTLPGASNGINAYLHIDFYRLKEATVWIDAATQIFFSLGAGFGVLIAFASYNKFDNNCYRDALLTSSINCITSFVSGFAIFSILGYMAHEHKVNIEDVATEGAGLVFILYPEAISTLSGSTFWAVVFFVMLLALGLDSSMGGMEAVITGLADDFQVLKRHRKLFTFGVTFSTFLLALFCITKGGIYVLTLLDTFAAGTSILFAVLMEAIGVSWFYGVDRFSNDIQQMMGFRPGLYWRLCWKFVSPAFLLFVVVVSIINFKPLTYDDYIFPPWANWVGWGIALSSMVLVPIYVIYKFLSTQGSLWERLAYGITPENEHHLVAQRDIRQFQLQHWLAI
Description: Inhibition of NET (unknown origin) upto 10000 nM

CC(C)(O)[C@H]1CC[C@H](NC(=O)c2cnc3nc(C4CC4)ccc3c2)CC1
EC50 [1]: 42 nM | AUC/dose [2]: 1320 | Papp at 3 h [3]: 4.4 ×10⁻⁶ cm/s | half-life [4]: 2.9 h | half-life [5]: 5.1 h | half-life [6]: 6.2 h | bioavailability [7]: 92% | inhibition (INH) [8]: Not Active | inhibition (INH) [9]: Not Active | inhibition (INH) [10]: Not Active | ED50 (Mus musculus [11]): 0.0138 mg/kg | fAUClast [12]: 1.2 µg·h/mL | AUC(0-t) at 1032 h [13]: 1.1 µg·h/mL | Cmax [14]: 0.26 µg/mL | Activity [15]: Non-Toxic | Activity [16]: Non-Toxic | Activity [17]: Non-Toxic | Kp at 384 h [18]: 0.56 | Kp at 1032 h [19]: 0.56 | Activity [20]: Non-Toxic | Activity [21]: Non-Toxic | Activity [22]: Non-Toxic | Activity [23]: Toxic | Activity [24]: Non-Toxic | Activity [25]: Non-Toxic | Activity [26]: Toxic | Activity [27]: Toxic | Activity [28]: Toxic | AUC at 96 h [29]: 120 µg·h/mL | AUC at 96 h [30]: 3600 µg·h/mL | Cmax [31]: 210 µg/mL | EC50 (Mus musculus [32]): 2.6 nM | EC50 (Mus musculus [33]): 1.4 ng/g | inhibition [34]: inactive | inhibition [35]: inactive | inhibition [36]: inactive | inhibition [37]: inactive | inhibition [38]: inactive | inhibition [39]: inactive | inhibition [40]: inactive
